Data as given in US7531195B2, “Schisandrin B preparation” (priority 2005, dated 2009).

Key:
H9c2 cells [1] = experiment: Cellular GSH level in H9c2 cells, time course, with or without xanthine/xanthine oxidase (X/XO) challenge; format: cell-based, rat; details: 6.25 μM
Procedure: (§1) H9c2 cells, a permanent cell line derived from cardiac myoblasts of rat embryo, have early been characterized as a suitable model of myocardial cells [Hescheler et al. 1991]. H9c2 cells were cultured as monolayers in Dulbecco's modified Eagle's medium (GIBCO BRL) supplemented with 10% (v/v) fetal bovine serum. The medium contained glucose (4.5 g/L) and glutamine (4.5 mM), supplemented with NaHCO3 (17 mM), penicillin (100 IU/ml), and streptomycin (100 μg/ml). Cells were grown under an atmosphere of 5% CO2 in air at 37° C. The medium was replaced by fresh medium every 2 or 3 days. A stock of cells was grown in a 75 cm culture flask and split before confluence at a subcultivation ratio of 1:10. Cells used for experiments were seeded at a density of 3.75×10^4 cells/well on a 12-well culture plate, and the cells were grown for 24 h to about 80% confluence prior to drug treatment.
(§2) Cultured H9c2 cells were treated with (−) Schisandrin B, (+) Schisandrin B or (±) Schisandrin B (dissolved in DMSO) at 6.25 μM (0.2% DMSO final concentration) for increasing periods of time. Control cells were given the vehicle (i.e. DMSO) only. Immediately following the drug or vehicle pretreatment, the cells were challenged with a mixture of xanthine (X) (0.1 mM) and xanthine oxidase (XO) (0.4 U/ml) for 4 h. The control cells were treated with the medium only. After the X/XO challenge, the medium was taken for the measurement of LDH activity, a biochemical index of cellular injury.
The cells were washed twice with 0.5 ml cold phosphate-buffered saline (PBS), An aliquot (200 μl) of 3% sulfonsalicyclic acid was then added, and the mixture was incubate at 4° C. for 10 min. After centrifuging at 300 g for 15 min at 4° C., the supernatant was used for GSH measurement by an enzymatic method of Griffith (1980).

Hsp25 = Hsp25 expression in H9c2 cells (Western blot); format: cell-based, rat; details: 6.25 μM
Procedure: as §1
Cultured H9c2 cells were treated with (−) Schisandrin B, (+) Schisandrin B or (±) Schisandrin B (dissolved in DMSO) at 6.25 μM (0.2% DMSO final concentration) for increasing periods of time. Control cells were given the vehicle (i.e. DMSO) only.
Immediately following the drug treatment, the cells were washed twice with 0.5 ml cold PBS and treated with 100 μl lysis buffer containing 20 mM Tris HCl, 3 mM EGTA, 1% Triton X-100, 10% glycerol and 2 mM dithiothreitol, pH 7.5, with freshly added protease inhibitors (1 mM phenylmethylsulfonyl fluoride, 0.1 mM benzamide, 5 μg/ml leupeptin, 5 μg aproptinin and 5 μg/ml pepstain A). The mixture was incubated at 4° C. for 15 min with constant shaking. Then the cells were scraped off from the plate, and the extract was transferred to a microcentrifuge tube for centrifugation at 2,400 g for 3 min at 4° C. The resultant supernatant was used for Hsp analysis. Hsp25 and Hsp70 levels was estimated by Western blot analysis using specific antibodies (anti-Hsp25, catalog #SPA-801; anti-Hsp70, catalog #SPA-812) from StressGen (Vancouver, BC, Canada) following SDS-PAGE analysis cell lysates, using a separating gel of 10% acrylamide as described in Ip et. al. [2001]. Hsp25/27 and Hsp70 (human recombinant proteins from StressGen) and actin (bovine muscle from Sigma) were used as markers for reference. […] All immuno-blots were analyzed by densitometry, and the amounts (arbitrary units) of Hsp were normalized with reference to actin levels (arbitrary units) in the sample.

H9c2 cells [2] = experiment: Xanthine/xanthine oxidase-induced cytotoxicity (LDH leakage) in H9c2 cells; format: cell-based, rat; details: 6.25 μM
Procedure: as §1, §2

[3] = tested on: mitochondria of brain, heart, liver and skeletal muscle; experiment: Mitochondrial antioxidant status in various tissues of young female rats; format: in vivo, rat; details: (−) Sch B, α-LA, α-Toc at daily 10, 5 and 70 mg/kg respectively, 15 days
Procedure: The dosages were determined with reference to the equivalent amount of crude herb prescribed for human or the daily recommended intake in health supplements. The control animals received olive oil only. Twenty-four hours after the last dose, the pentobarbital-anesthetized animals were sacrificed by cardiac excision, and brain. heart, liver and skeletal muscle tissues were obtained. Tissue samples (brain, heart, liver, and skeletal muscle) were rinsed with ice-cold isotonic buffer (50 mM Tris, 0.32 M sucrose, 1 mM Na2EDTA, 0.2 mg/ml soybean trypsin inhibitor, 0.2 mg/ml bacitracine, 0.16 mg/ml benzamidine). Tissue homogenates were prepared by homogenizing 0.8 g of myocardial tissue in 8 ml ice-cold isotonic buffer and the homogenates were used for the preparation of mitochondrial fractions by differential centrifugation, as described in Chiu and Ko (2004). The mitochondrial pellets were resuspended in 1.5 ml of isotonic buffer containing 150 μl of 2 mg/ml soybean trypsin inhibitor and constituted the mitochondrial fractions. […] (St. Louis, Mo., USA). […] Aliquots (400 μl) of mitochondrial fractions were mixed with 933 μl Triton X-100 solution (0.3%, v/v, in isotonic buffer) and sonicated for 2 min on ice. The mixtures were then subjected to measurements of mitochondrial glutathione reductase (GRD), Se-glutathione peroxidase (GPX) and glutathione S-transferases (GST) activities by spectrophotometric methods, as described in Chiu et al. (2002).

[4] = X/XO challenge, 0 h post-dosing (unpretreated control)
[5] = X/XO challenge, 4 h post-dosing
[6] = X/XO challenge, 8 h post-dosing
[7] = X/XO challenge, 16 h post-dosing
[8] = X/XO challenge, 24 h post-dosing
[9] = X/XO challenge, 48 h post-dosing

SMILES: COc1cc2c(c(OC)c1OC)-c1c(cc3c(c1OC)OCO3)CC(C)C(C)C2 (single isomer, unassigned; (-)) [(−) Sch B, (−) Schisandrin B]
- stimulatory effect on cellular GSH (H9c2 cells [1]; 48 h post-dosing): no detectable stimulatory effect
- time of maximum stimulation of cellular GSH (H9c2 cells [1]; post-dosing): 16 h
- GSH Level (H9c2 cells [1]; NON-X/XO, 0 h post-dosing (unpretreated control)): 35.8 ± 1.04 nmol/mg protein
- GSH Level (H9c2 cells [1]; NON-X/XO, 4 h post-dosing): 46.8 ± 0.88 nmol/mg protein
- GSH Level (H9c2 cells [1]; NON-X/XO, 8 h post-dosing): 54.2 ± 1.42 nmol/mg protein
- GSH Level (H9c2 cells [1]; NON-X/XO, 16 h post-dosing): 92.6 ± 1.29 nmol/mg protein
- GSH Level, percent increase vs unpretreated control (0 h) (H9c2 cells [1]; NON-X/XO, 16 h post-dosing): (158%)
- GSH Level (H9c2 cells [1]; NON-X/XO, 24 h post-dosing): 79.0 ± 1.48 nmol/mg protein
- GSH Level (H9c2 cells [1]; NON-X/XO, 48 h post-dosing): 54.7 ± 3.58 nmol/mg protein
- GSH Level (H9c2 cells [1]; [4]): 15.9 ± 0.45 nmol/mg protein
- GSH Level (H9c2 cells [1]; [5]): 18.3 ± 0.57 nmol/mg protein
- GSH Level (H9c2 cells [1]; [6]): 20.7 ± 0.61 nmol/mg protein
- GSH Level (H9c2 cells [1]; [7]): 25.1 ± 1.50 nmol/mg protein
- GSH Level, percent increase vs unpretreated control (0 h) (H9c2 cells [1]; [7]): (57%)
- GSH Level (H9c2 cells [1]; [8]): 17.8 ± 0.59 nmol/mg protein
- GSH Level (H9c2 cells [1]; [9]): 16.7 ± 0.63 nmol/mg protein
- Hsp 25 Level (Hsp25; 0 h post-dosing (unpretreated control)): 1722 ± 99 AU
- Hsp 25 Level (Hsp25; 8 h post-dosing): 1386 ± 50 AU
- Hsp 25 Level (Hsp25; 16 h post-dosing): 1432 ± 83 AU
- Hsp 25 Level (Hsp25; 24 h post-dosing): 1956 ± 113 AU
- Hsp 25 Level, percent increase vs unpretreated control (0 h) (Hsp25; 24 h post-dosing): (14%)
- Hsp 25 Level (Hsp25; 48 h post-dosing): 1878 ± 108 AU
- time of maximum stimulation of Hsp25 level (Hsp25; post-dosing): 24 h
- time of maximum extent of protection against X/XO-induced cell injury (LDH leakage) (H9c2 cells [2]; post-dosing): 16 h
- LDH Leakage (H9c2 cells [2]; [4]): 34.8 ± 1.13 U/L
- LDH Leakage (H9c2 cells [2]; [5]): 26.0 ± 0.92 U/L
- LDH Leakage (H9c2 cells [2]; [6]): 22.0 ± 0.63 U/L
- LDH Leakage (H9c2 cells [2]; [7]): 14.2 ± 0.35 U/L
- LDH Leakage, percent protection vs unpretreated control (0 h) (H9c2 cells [2]; [7]): (78%)
- LDH Leakage (H9c2 cells [2]; [8]): 17.5 ± 0.85 U/L
- LDH Leakage (H9c2 cells [2]; [9]): 26.3 ± 0.41 U/L
- GPX ([3]; BRAIN): 163 ± 9 percent control
- GRD ([3]; BRAIN): 150 ± 9 percent control
- GSH ([3]; BRAIN): 147 ± 4 percent control
- GST ([3]; BRAIN): 143 ± 4 percent control
- α-Toc level ([3]; BRAIN): 141 ± 7 percent control
- GPX ([3]; HEART): 143 ± 7 percent control
- GRD ([3]; HEART): 163 ± 6 percent control
- GSH ([3]; HEART): 159 ± 2 percent control
- GST ([3]; HEART): 161 ± 5 percent control
- α-Toc level ([3]; HEART): 160 ± 13 percent control
- GPX ([3]; LIVER): 135 ± 3 percent control
- GRD ([3]; LIVER): 161 ± 10 percent control
- GSH ([3]; LIVER): 175 ± 5 percent control
- GST ([3]; LIVER): 154 ± 4 percent control
- α-Toc level ([3]; LIVER): 167 ± 14 percent control
- GPX ([3]; SKELETAL MUSCLE): 125 ± 5 percent control
- GRD ([3]; SKELETAL MUSCLE): 166 ± 4 percent control
- GSH ([3]; SKELETAL MUSCLE): 137 ± 1 percent control
- GST ([3]; SKELETAL MUSCLE): 171 ± 10 percent control
- α-Toc level ([3]; SKELETAL MUSCLE): 178 ± 13 percent control
